Test results from patent publication US8114911B2, “Prostaglandin compounds for the treatment of obesity” (Sucampo AG, priority 2003, dated 2012).
“Also recorded” adds a separate entry of the source.

Assay: Body weight change in volunteers after 21 days of oral test capsules
Assay type: in vivo, human
Settings: oral capsules before meals, 24, 48 or 72 μg of test substance per day for 21 days, body weight 3 weeks after initiation vs before, placebo control group increased
Experimental: 13,14-dihydro-15-keto-16,16-difluoro-PGE1 was used as the test substance. Test capsule for oral administration containing 24 μg of the test substance and placebo capsule made from inert ingredients which was identical to the test capsule were prepared.
Volunteers were divided into 4 groups. The test groups received 24, 48 and 72 μg of the test substance per day respectively and the control group received the placebo. All volunteers were instructed to take one capsule before each meal (morning-, day- and evening-time) everyday for 21 days. Test group I (27 volunteers) received 24 μg of the test substance per day by taking the test capsule at the morning time and the placebo capsule at each of the day and evening times; test group II (32 volunteers) received 48 μg of the test substance per day by taking the test capsule at each of the morning and evening times and the placebo capsule at the day time; test group III (32 volunteers) received 72 μg of the test substance by taking the test capsule three times per day. Control group (33 volunteers) received the placebo capsule every time. Volunteers were instructed to take each capsule with 8 ounces of water prior to eating a meal. Body weight was measured before and 3 weeks after the initiation of the administration.

## CCCCC(F)(F)C(=O)CCC1C(O)CC(=O)C1CCCCCCC(=O)O (stereo not shown) [13,14-dihydro-15-keto-16,16-difluoro-PGE1]
  changes of body weight from the pre-values: body weight reductions were observed in all test groups; also recorded: decreased in a dose dependent manner
